# Test results: US8455397B2, “Penoxsulam as a turfgrass, vineyard and orchard floor herbicide” (Dow AgroSciences, LLC, priority 2005, dated 2013)
# How the values were obtained:
# [1] = system: broadleaf plantain (PLAMA); assay: Granule carrier/particle size, post emergence greenhouse study; assay type: in vivo, Plantago major L.; details: postemergent greenhouse
# Method: (§1) Greenhouse and field studies evaluated the effect of two granule carriers and two particles sizes on the postemergent broadleaf activity of penoxsulam. The two carriers were a 46-0-0 and 28-4-12 fertilizer blend and the particle sizes averaged 0.75 mm and 2.15 mm.
# (§2) Greenhouse studies were applied both post and pre-emergence to broadleaf weeds and sedge reared from seed or nutlet in 12.7″ (32.25 cm) by 8.8″ (22.35 cm) flats of a loam soil. Particle size and carrier were evaluated post emergence, carrier comparisons with the smaller particle size of 0.75 was evaluated pre-emergence. Stage of growth of species at post emergence application: PLAMA and TAROF in the 3 to 5 leaf stage, TRFRE in the 3rd tri-foliate stage and CYPES in the 3 to 4 leaf stage. Post emergence trial design was a replicated block, one species per flat, 3 replicate flats per treatment. Granule treatments were uniformly applied to individual flats on an area basis using a common hand-shaker method. Post emergence applications were made to the flat covering both soil and misted foliage. Trial was sub-irrigated daily, and watered over the top 1 time per week starting 7 days after application to simulate a natural rainfall event. Active weed growth was maintained throughout the study period. Weed control of each species in the post emergence study was assessed at 2, 3 and 4 weeks after treatment. Pre-emergence trial design was 2 species per flat, 4 replicate flats, block design. Pre-emergence applications were made to the soil surface using a common hand shaker method on an area basis. Overhead irrigation was maintained throughout the trial. Weed control of each species in the pre-emergence study was assessed at 2, 3, 4 and 5 weeks after application. Control was determined visually by comparing treated and untreated flats and scored on a 0 to 100 percent scale where 0 corresponds to no control and 100 corresponds to complete kill.
# [2] = system: common purslane (POROL); assay: Pre-emergence weed nursery field study; assay type: in vivo, Portulaca oleracea; details: weed nursery in the field, 27 Days After Application
# Method: Field studies were conducted in a non-fumigated weed nursery trial. Weed species were planted in single strips with a row planter at 36 centimeter spacing. Plot size was 3.05×9.2 meters, 4 replicate plots per treatment. Weed species were seeded at appropriate depths and later the same day pre-emergent applications were made to the soil surface. Liquid applications were made using a backpack sprayer calibrated to deliver 187 liters per hectare (L/ha). Applications were made in Fresno, Calif. in June. Sprinkler irrigation was applied at regular intervals throughout study period. Control of each weed species in the study site was made 4 weeks after treatment. Control was determined visually by comparing treated and untreated weeds and scored on a 0 to 100 percent scale where 0 corresponds to no control and 100 corresponds to complete kill or no emergence.
# [3] = system: broadleaf plantain (PLAMA); assay: Postemergent granule herbicides, turfgrass field studies; assay type: in vivo, Plantago major L.; details: Table I, 2 sites, Penoxsulam 140 gai/Ha, Scotts Plus 2 1682+841 gae/Ha, Trimec 1121+516+112 gae/Ha
# Method: (§3) Field studies were conducted in established turfgrass sites containing a natural population of target broadleaf weeds. Replicated trials, containing a minimum of three replications and having individual plots ranging in size from 25 to 50 ft. sq (2.3 to 4.6 square meters), were initiated in the late spring when turf and weeds were actively growing. Granule treatments were uniformly applied to individual plots using a common hand-shaker method. Applications were made in the early morning when dew was present. Natural rainfall and supplemental irrigation were used to maintain healthy turf and active weed growth throughout the study period. Control of each weed species in the study site was made at 2, 4 and 8 weeks after treatment. Control was determined visually by comparing treated and untreated weeds and scored on a 0 to 100 percent scale where 0 corresponds to no control and 100 corresponds to complete kill.
# [4] = system: little mallow (MALPA); assay: Pre-emergence orchard floor weeds, greenhouse study; assay type: in vivo, Malva parviflora; details: 28 Days After Application
# Method: (§4) Greenhouse studies were conducted by seeding species in a loam soil and applying the herbicides to the soil surface using a Cornwall 5 milliliter glass syringe fitted with a TeeJet TN-3 nozzle on an area basis Immediately following herbicide application the pots were irrigated over the top to move the herbicides into the seeding zone. Pots were kept well irrigated throughout the trial. A percent visual weed control assessment was taken 4 weeks after application. Control was determined visually by comparing treated and untreated pots and scored on a 0 to 100 percent scale where 0 corresponds to no control and 100 corresponds to complete kill, or no emergence.
# [5] = system: common mallow (MALNE); assay: as above; assay type: in vivo, Malva neglecta; details: 28 Days After Application
# Method: as §4
# [6] = system: buckhorn plantain (PLALA); assay: Postemergent granule herbicides, turfgrass field studies; assay type: in vivo, Plantago lanceolata L.; details: Table I, 3 sites, Penoxsulam 140 gai/Ha, Scotts Plus 2 1682+841 gae/Ha, Trimec 1121+516+112 gae/Ha
# Method: as §3
# [7] = system: turfgrass; details: in vivo
# [8] = system: white clover (TRFRE); assay: Granule carrier comparison, pre-emergence greenhouse study; assay type: in vivo, Trifolium repens L.; details: pre-emergent greenhouse
# Method: as §1, §2
# [9] = system: redstem filaree (EROCI); assay: Pre-emergence orchard floor weeds, greenhouse study; assay type: in vivo, Erodivam cicutarium; details: 28 Days After Application
# Method: as §4
# [10] = system: pennywort (dollarweed) (HYDSS); assay: Postemergent granule herbicides, turfgrass field studies; assay type: in vivo, Hydrocotyle spp; details: Table III, 1 site
# Method: as §3
# [11] = carrier 28-4-12, particle size 0.75 mm, 5.6 gai/Ha
# [12] = carrier 28-4-12, particle size 0.75 mm, 11.2 gai/Ha
# [13] = carrier 28-4-12, particle size 0.75 mm, 22.4 gai/Ha
# [14] = carrier 46-0-0, particle size 0.75 mm, 5.6 gai/Ha
# [15] = carrier 46-0-0, particle size 0.75 mm, 11.2 gai/Ha
# [16] = carrier 46-0-0, particle size 0.75 mm, 22.4 gai/Ha
smiles,measurement,setting,value
"COc1cnc(OC)n2nc(NS(=O)(=O)c3c(OCC(F)F)cccc3C(F)(F)F)nc12 [Penoxsulam, 2-(2,2-difluoroethoxy)-N-(5,8-dimethoxy[1,2,4]triazolo[1,5-c]-pyrimidin-2-yl)-6-(trifluoromethyl)benzenesulfonamide]",Percent Weed Control 27-30 DAA,[1]; [11],35%
same,Percent Weed Control 27-30 DAA,[1]; [12],75%
same,Percent Weed Control 27-30 DAA,[1]; [13],96%
same,Percent Weed Control 27-30 DAA,"[1]; carrier 28-4-12, particle size 2.15 mm, 5.6 gai/Ha",0%
same,Percent Weed Control 27-30 DAA,"[1]; carrier 28-4-12, particle size 2.15 mm, 11.2 gai/Ha",27%
same,Percent Weed Control 27-30 DAA,"[1]; carrier 28-4-12, particle size 2.15 mm, 22.4 gai/Ha",38%
same,Percent Weed Control 27-30 DAA,[1]; [14],47%
same,Percent Weed Control 27-30 DAA,[1]; [15],77%
same,Percent Weed Control 27-30 DAA,[1]; [16],97%
same,Percent Weed Control 27-30 DAA,"[1]; carrier 46-0-0, particle size 2.15 mm, 5.6 gai/Ha",8%
same,Percent Weed Control 27-30 DAA,"[1]; carrier 46-0-0, particle size 2.15 mm, 11.2 gai/Ha",15%
same,Percent Weed Control 27-30 DAA,"[1]; carrier 46-0-0, particle size 2.15 mm, 22.4 gai/Ha",50%
same,Pre-emergent Percent Mean Control,[2]; 8.8 gai/Ha,96%
same,Pre-emergent Percent Mean Control,[2]; 17.5 gai/Ha,97%
same,Pre-emergent Percent Mean Control,[2]; 35 gai/Ha,99%
same,Pre-emergent Percent Mean Control,[2]; 70 gai/Ha,100%
same,Mean Percent Weed Control,[3]; 4 Weeks After Treatment,81%
same,Mean Percent Weed Control,[3]; 8 Weeks After Treatment,87%
same,Pre-emergent Percent Mean Control,[4]; 8.8 gai/Ha,74%
same,Pre-emergent Percent Mean Control,[4]; 17.5 gai/Ha,87%
same,Pre-emergent Percent Mean Control,[4]; 35 gai/Ha,93%
same,Pre-emergent Percent Mean Control,[4]; 70 gai/Ha,100%
same,Pre-emergent Percent Mean Control,[5]; 8.8 gai/Ha,60%
same,Pre-emergent Percent Mean Control,[5]; 17.5 gai/Ha,92%
same,Pre-emergent Percent Mean Control,[5]; 35 gai/Ha,95%
same,Pre-emergent Percent Mean Control,[5]; 70 gai/Ha,98%
same,Mean Percent Weed Control,[6]; 4 Weeks After Treatment,53%
same,Mean Percent Weed Control,[6]; 8 Weeks After Treatment,62%
same,"damage to mature, well-established turfgrass",[7],acceptable or no damage
same,Percent Weed Control 35 DAA,[8]; [11],80%
same,Percent Weed Control 35 DAA,[8]; [12],98%
same,Percent Weed Control 35 DAA,[8]; [13],99%
same,Percent Weed Control 35 DAA,[8]; [14],55%
same,Percent Weed Control 35 DAA,[8]; [15],75%
same,Percent Weed Control 35 DAA,[8]; [16],98%
same,Pre-emergent Percent Mean Control,[9]; 8.8 gai/Ha,79%
same,Pre-emergent Percent Mean Control,[9]; 17.5 gai/Ha,97%
same,Pre-emergent Percent Mean Control,[9]; 35 gai/Ha,100%
same,Pre-emergent Percent Mean Control,[9]; 70 gai/Ha,100%
same,Mean Percent Weed Control,"[10]; 4 Weeks After Treatment, 22.4 gai/Ha",50%
same,Mean Percent Weed Control,"[10]; 4 Weeks After Treatment, 44.9 gai/Ha",97%
same,Mean Percent Weed Control,"[10]; 4 Weeks After Treatment, 67.3 gai/Ha",98%
same,Mean Percent Weed Control,"[10]; 4 Weeks After Treatment, 100 gai/Ha",100%
same,Mean Percent Weed Control,"[10]; 8 Weeks After Treatment, 22.4 gai/Ha",40%
same,Mean Percent Weed Control,"[10]; 8 Weeks After Treatment, 44.9 gai/Ha",93%
same,Mean Percent Weed Control,"[10]; 8 Weeks After Treatment, 67.3 gai/Ha",84%
same,Mean Percent Weed Control,"[10]; 8 Weeks After Treatment, 100 gai/Ha",97%
